According to patent publication US20200237700A1, “METHODS OF REDUCING OR PREVENTING OXIDATION OF SMALL DENSE LDL OR MEMBRANE POLYUNSATURATED FATTY ACIDS” (Amarin Pharmaceuticals Ireland Limited, priority 2015, published 2020):

Key:
[1] = test system: human sdLDL; assay: Copper-induced sdLDL oxidation, TBARS (Example 7); assay type: biochemical; settings: for effect on sdLDL oxidation as compared to vehicle-treated controls: 10 μM, 1 hour
Experimental: (§1) An experiment to study the antioxidant effect of EPA in LDL and small dense […] performed. […] Fenofibrate, gemfibrozil, and niacin were purchased from Sigma-Aldrich. […] Vitamin E was also incubated with sample aliquots as a positive control.

[2] = test system: human LDL (unfractionated); assay: Copper-induced unfractionated LDL oxidation, TBARS 1 hr (Example 7); assay type: biochemical; settings: 10 μM
Experimental: as §1

[3] = Small angle x-ray diffraction of cholesterol-enriched POPC model membranes, cholesterol domain peak intensity (Example 9); assay type: physicochemical; settings: drug-to-phospholipid mole ratio 1:30
Experimental: The fatty acid stock solutions were stored at −20° C. until use. […] Samples were shell-dried under nitrogen gas and placed under vacuum for 3 hours to remove residual solvent at room temperature. After desiccation, each sample was resuspended in saline buffer (0.5 mM HEPES, 154 mM NaCl, pH 7.3) to yield a final phospholipid concentration of 2.5 mg/mL. Lipid suspensions were then vortexed for 3 minutes at ambient temperature to form MLVs. Membrane lipid vesicles were oriented for x-ray diffraction analysis as described by others (e.g., Herbette et al., Biophys. […] Briefly, a 100 μL aliquot of each MLV preparation (containing 250 μg MLV) was transferred to a Lucite® sedimentation cell fitted with an aluminum foil substrate designed to collect MLVs into a single membrane pellet upon centrifugation. […] After centrifugal orientation, sample supernatants were aspirated and aluminum foil substrates, each supporting a single membrane pellet, were removed from the sedimentation cells. Sample pellets were dried for 5-10 minutes at ambient conditions, mounted onto curved glass supports, and placed in hermetically-sealed, brass or glass containers (for immediate analysis or temporary storage, respectively). All x-ray diffraction experiments were conducted at 20° C., 74% relative humidity. The latter was established by exposing membrane samples to saturated solutions of L-(+)-tartaric acid (K2C4H4O6.½H2O) for at least 1 hour prior to experimental analysis. Oriented membrane samples were aligned at grazing incidence with respect to a collimated, mono-chromatic CuKα x-ray beam (Kα1 and Kα2 unresolved; λ=1.54 Å) produced by a Rigaku Rotaflex RU-200, high-brilliance microfocus generator (Rigaku-MSC, The Woodlands, Tex.) as previously described (Mason et al., Biophys. J., vol. 55(4), pages 769-778 (1989)). The samples were initially subjected to x-ray diffraction analysis at least 12 hours after formation of the membrane pellets and retested for up to several days. […] Collimation of the x-ray beam was achieved using a single Franks mirror. Diffraction data were collected on a one-dimensional, position-sensitive electron detector (Hecus X-ray Systems, Graz, Austria) at a sample-to-detector distance of 150 mm from the sample site. […] Routines written in Origin 8.6 (OriginLab Corporation, Northampton, Mass.) were used to determine total peak area (associated with all diffraction peaks in a given pattern) against which the second-order cholesterol domain peak was normalized. […] Differences between groups were analyzed using the two-tailed, Student's t-test (for comparisons between only two groups) or ANOVA followed by Dunnett or Student-Newman-Keuls multiple comparisons post-hoc analysis (for comparisons between three or more groups). […]

[4] = test system: sdLDL isolated from human subjects under hyperglycemia; assay: Glucose-induced sdLDL oxidation, TBARS/MDA (Example 10); assay type: biochemical; settings: glucose 200 mg/dL; for glucose-induced sdLDL oxidation: 10.0 μM
Experimental: Vitamin E (α-tocopherol) purchased from Sigma-Aldrich was prepared in ethanol at 1.0 mM (c=3.06×10^4 M^−1 cm^−1 at 294 nm) prior to experimental use. Test compounds were further diluted in ethanol or aqueous buffer as needed. Phosphate Buffered Saline (PBS) purchased from Sigma-Aldrich was prepared in double distilled water at 10 mM (138 mM NaCl, 2.7 mM KCl, pH 7.4). […] Lipid oxidation was measured by the colorimetric detection of malondialdehyde (MDA), a marker of oxidative stress. Data were presented as mean±SD for (n) separate samples or experiments. Differences between groups were analyzed using the unpaired, two-tailed Student's t-test (for comparisons between only two groups) or ANOVA followed by Student-Newman-Keuls multiple comparisons post hoc analysis (for comparisons between three or more groups).

[5] = Glucose-induced membrane lipid peroxidation (LOOH) in multilamellar vesicles, CHOD-iodide assay (Example 4); assay type: biochemical
Experimental: Vitamin E (α-tocopherol) was also purchased from Sigma-Aldrich and prepared in ethanol at 1.0 mM (ε=3.06×10^4 M^−1 cm^−1 at 294 nm) just prior to experimental use. […] All test compounds were further diluted in ethanol or aqueous buffer as needed. Glucose was prepared in saline buffer (0.5 mM HEPES, 154 mM NaCl, pH 7.3) at 11.0 mM (200 mg/dL). CHOD-iodide color reagent (stock) was prepared, with slight modification, as described by from El-Saadani et al. (J. […] Samples were shell-dried under nitrogen gas and placed under vacuum for 1 h to remove residual solvent. […] Lipid suspensions were then vortexed for 3 min at ambient temperature to form MLVs. All MLV samples were subjected to time-dependent autoxidation by incubating at 37° C. in an uncovered, shaking water bath. This method allows lipid peroxidation to occur gradually without requiring the use of exogenous initiators. Small aliquots (5-100 μL) of each sample were removed, immediately following MLV preparation (0 hour) and after exposing samples to oxidative conditions for 72 or 96 hour, and combined with 1.0 mL of activated CHOD-iodide color reagent. Aliquot volume was reduced with each successive time point to ensure that spectrophotometric readings were within the optimal adsorption range. Test samples were covered and incubated in darkness at room temperature for at least 4 hr. Sample absorbances were then measured against a CHOD blank at 365 nm using a Beckman DU-640 spectrophotometer. The CHOD colorimetric assay is based on the oxidation of iodide (I^−) by lipid hydroperoxide (LOOH) to form triiodide (I3^−), the quantity of which is directly proportional to the amount of LOOH present in the lipid sample. The molar absorptivity (E) of I3^− is 2.46×10^4 M^−1 cm^−1 at 365 nm. […] The concentration of glucose selected was consistent with previous experimental studies of hyperglycemia under controlled laboratory conditions or observed in well-defined animal models of Type II diabetes following a glucose challenge. […] Values in FIG. 1 are mean±S.D. (N=6). EPA inhibited the peroxidative effects of glucose by 88% and 86% at 72 and 96 hours, respectively, which was highly significant (p<0.001) as compared to glucose treatment alone. […] Overall ANOVA-0 hour data: p=0.6655, F=0.4185; 72 hour data: p<0.0001, F=428.72; 96 hour data: p<0.0001, F=322.01.

[6] = Small angle x-ray diffraction of glucose-treated model membranes, cholesterol domain peak intensity (Example 4); assay type: physicochemical; settings: any experimental time point; 1:30 drug-to-phospholipid; glucose 200 mg/dL
Experimental: After centrifugal orientation, sample supernatants were aspirated and aluminum foil substrates, each supporting a single membrane pellet, were removed from the sedimentation cells. […] All x-ray diffraction experiments were conducted at 20° C., 74% relative humidity.
Oriented membrane samples were aligned at grazing incidence with respect to a collimated, mono-chromatic CuKα x-ray beam (Kα1 and Kα2 unresolved; λ=1.54 Å) produced by a Rigaku Rotaflex RU-200, high-brilliance microfocus generator (Rigaku-MSC, The Woodlands, Tex.) as previously described (Mason et al., Biophys. J., vol. 55(4), pages 769-778 (1989)).
Routines written in Origin 8.6 (OriginLab Corporation, Northampton, Mass.) were used to determine total peak area (associated with all diffraction peaks in a given pattern) against which the second-order cholesterol domain peak was normalized.

[7] = test system: human sdLDL; assay: Copper-induced sdLDL oxidation, TBARS after 2 hr (Example 6); assay type: biochemical
Experimental: An experiment to study the antioxidant effect of EPA in small dense […] performed. […] Vitamin E (α-tocopherol) was purchased from Sigma-Aldrich and prepared in ethanol at 1.0 mM (ε=3.06×10^4 M^-1 cm^-1 at 294 nm) just prior to experimental use. All test compounds were further diluted in ethanol or aqueous buffer as needed. Venous blood was collected from healthy volunteers into vacutainer tubes containing sodium EDTA. Plasma was separated by centrifugation at 3000 g for 25 min at 4° C. and adjusted to a density of 1.020 g/mL with KBr. Triglyceride-rich lipoproteins (TGRL) and LDL fractions were then isolated by sequential centrifugation at 70,000 rpm at 4° C. in a Beckman LE-80 ultracentrifuge using a Beckman 50.4Ti rotor (Beckman Coulter, Inc., Fullerton, Calif.). The TGRL fraction (with a relative density of <1.020) was aspirated from the top of the centrifugate and discarded, leaving an LDL-enriched […] relative density of 1.020 to 1.063). […] The sdLDL subfraction was retained for additional experimentation. Plasma and lipoprotein fractions were maintained at 4° C. and protected from excessive exposure to light. Prior to oxidation experiments, EDTA was removed from the lipoprotein fraction using PD-10 desalting columns (GE Healthcare, Piscataway N.J.). After equilibration of the column with phosphate buffered saline (PBS), 2.5 mL of the lipoprotein fraction was loaded on the column and the flow-through discarded. The lipoprotein was then eluted with 3 mL of PBS. The LDL fractions were further diluted with PBS to obtain a 100 μg/mL apoB100 concentration. […] Data are presented as mean±S.D. for (N) separate samples or treatment groups. Differences between groups were analyzed using the two-tailed, Student's t-test (for comparisons between only two groups) or ANOVA followed by Dunnett or Student-Newman-Keuls multiple comparisons post-hoc analysis (for comparisons between three or more groups).

[8] = test system: unfractionated LDL isolated from human plasma; assay: Copper-induced oxidation of unfractionated LDL, TBARS (Example 6); assay type: biochemical; settings: 1.0 μM to 10.0 μM; data not shown
Experimental: All test compounds were further diluted in ethanol or aqueous buffer as needed. Venous blood was collected from healthy volunteers into vacutainer tubes containing sodium EDTA. […] Plasma and lipoprotein fractions were maintained at 4° C. and protected from excessive exposure to light. Prior to oxidation experiments, EDTA was removed from the lipoprotein fraction using PD-10 desalting columns (GE Healthcare, Piscataway N.J.). After equilibration of the column with phosphate buffered saline (PBS), 2.5 mL of the lipoprotein fraction was loaded on the column and the flow-through discarded. The lipoprotein was then eluted with 3 mL of PBS. The LDL fractions were further diluted with PBS to obtain a 100 μg/mL apoB100 concentration. […] Differences between groups were analyzed using the two-tailed, Student's t-test (for comparisons between only two groups) or ANOVA followed by Dunnett or Student-Newman-Keuls multiple comparisons post-hoc analysis (for comparisons between three or more groups).

[9] = test system: sdLDL from plasma of healthy volunteers; assay: Time-dependent sdLDL oxidation, MDA formation over 4 hours (Example 13); assay type: biochemical, human; settings: entire experimental time course (4 hours)
Experimental: sdLDL was isolated from the plasma of healthy volunteers by iodixanol density gradient centrifugation and adjusted to a final apolipoprotein concentration of 2 mg/mL. Sample aliquots (100 μg apolipoprotein) were incubated with EPA, DHA, or EPA+DHA (each at 10 μM) for 30 minutes at 37° C. and then treated with 10 μM CuSO4 to initiate lipid oxidation. sdLDL oxidation was measured spectrophotometrically as a function of malondialdehyde (MDA) formation at various intervals over 4 hours. Vitamin E was also tested as a positive control. Experiments were conducted in triplicate and reported as mean±SD.

For `Cc1ccc(C)c(OCCCC(C)(C)C(=O)O)c1` [gemfibrozil], the “effect on sdLDL oxidation as compared to vehicle-treated controls” value [1] was “no significant effect”, the “effect on unfractionated LDL oxidation as compared to vehicle-treated controls” value [2] was “no significant effect” and the “effect on cholesterol domains / domain size” value [3] was “no significant changes in cholesterol domain size”. The “glucose-induced sdLDL oxidation” value [4] was “did not inhibit glucose-induced sdLDL oxidation”.

In the case of `CC(C)c1c(C(=O)Nc2ccccc2O)c(-c2ccccc2)c(-c2ccc(F)cc2)n1CC[C@@H](O)C[C@@H](O)CC(=O)O` [ATM, Atorvastatin ortho- (o-) hydroxy (active) metabolite], the “antioxidant effects of separate treatments (LOOH formation)” value ([5]; each at 1.0 μM, glucose 200 mg/dL, 96 hours) is reported as “potent antioxidant effects”, the “inhibition of sdLDL oxidation vs vehicle” value ([1]; ATM 0.5 μM, alone or in combination with EPA 1.0 μM, 1 hr) is reported as 5±5% and the “inhibition of sdLDL oxidation vs vehicle” value ([1]; each agent at 1.0 μM, 1 hr) is reported as 18±5%.

In the case of `Cc1c(C)c2c(c(C)c1O)CC[C@@](C)(CCC[C@H](C)CCC[C@H](C)CCCC(C)C)O2` [vitamin E, α-tocopherol], the “effect on LOOH formation / lipid peroxidation” value ([5]; 72- and 96-hour time points, 1:30 drug-to-phospholipid mole ratio, glucose) is reported as “no significant effect”, the “effect on cholesterol domain formation as compared to control” value [6] is reported as “no significant effect” and the “reduced TBARS levels compared to vehicle-treated controls” value ([7]; 10.0 μM, 10 μM CuSO4) is reported as 26%. The sdLDL oxidation ([7]; concentrations below the highest (10.0 μM)) was “did not inhibit sdLDL oxidation”, the LDL oxidation [8] was “did not inhibit LDL oxidation at any concentration” and the “effect on sdLDL oxidation as compared to vehicle-treated controls” value [1] was “no significant effect”. For the same compound, the “effect on unfractionated LDL oxidation as compared to vehicle-treated controls” value [2] was “no significant effect”, the “glucose-induced sdLDL oxidation” value [4] was “failed to inhibit sdLDL oxidation” and the “increased sdLDL oxidation as compared to glucose-treated controls” value [4] was 63%. The “antioxidant effect on sdLDL oxidation” value [9] was “no significant antioxidant effect”.

For `CC(C)c1c(C(=O)Nc2ccccc2)c(-c2ccccc2)c(-c2ccc(F)cc2)n1CC[C@@H](O)C[C@@H](O)CC(=O)O` [atorvastatin], the “effect on sdLDL oxidation as compared to vehicle-treated controls” value [1] was “did not have any significant antioxidant activity”, the “inhibited TBARS formation / sdLDL oxidation vs vehicle” value ([1]; each agent at 10 μM, 1 hr) was 0.1±7% and the “effect on unfractionated LDL oxidation as compared to vehicle-treated controls” value [2] was “did not have any significant antioxidant activity”.
